Experimental data: ChEMBL document CHEMBL1154003, “Synthesis of boronic acid derivatives of tyropeptin: proteasome inhibitors” (Bioorg Med Chem Lett, 2009)
Active and inactive are the calls of the source. The calls are words filed in the database; no cut-off is given here.

Assays:
[1] = Inhibition of chymotrypsin-like activity of human 20S proteasome
[2] = Inhibition of trypsin-like activity of human 20S proteasome
PC-3 = assay: Cytotoxicity against human PC3 cells; type: functional, cell-based
[3] = Inhibition of peptidylglutamyl-peptide hydrolyzing activity of human 20S proteasome

Structure (SMILES) | IC50 [1] [nM] | IC50 [2] [µM] | inhibition (PC-3) | IC50 [3] [µM]
COc1ccc(CC(C=O)NC(=O)[C@@H](NC(=O)[C@H](Cc2ccc(OC)cc2)NC(=O)Cc2cccc3ccccc23)C(C)C)cc1 (stereo not given in full) | 83 | > 40 | Active | > 40
COc1ccc(C[C@H](N)C(=O)N[C@H](C(=O)N[C@@H](Cc2ccccc2)B(O)O)C(C)C)cc1 | 100 | 4 | – | 7.7
CC(C)C[C@H](NC(=O)[C@H](Cc1ccccc1)NC(=O)c1cnccn1)B(O)O [BORTEZOMIB] | 24 | > 40 | – | 0.73
COc1ccc(C[C@H](NC(=O)[C@@H](NC(=O)[C@@H](N)Cc2ccc(OC)cc2)C(C)C)B(O)O)cc1 | 130 | 3.7 | – | 16
COc1ccc(C[C@H](NC(=O)[C@@H](NC(=O)[C@H](Cc2ccc(OC)cc2)NC(=O)Cc2cccc3ccccc23)C(C)C)B(O)O)cc1 | 6.3 | 5.6 | – | > 40
COc1ccc(C[C@H](NC(=O)Cc2cccc3ccccc23)C(=O)N[C@H](C(=O)N[C@@H](CC(C)C)B(O)O)C(C)C)cc1 | 2.6 | 2.8 | – | 0.94
COc1ccc(C[C@H](N)C(=O)N[C@H](C(=O)N[C@@H](CC(C)C)B(O)O)C(C)C)cc1 | 21 | 1.9 | – | 1.4
COc1ccc(C[C@H](NC(=O)Cc2cccc3ccccc23)C(=O)N[C@H](C(=O)N[C@@H](Cc2ccccc2)B(O)O)C(C)C)cc1 | 4.4 | 4.6 | – | 7.4
